Experimental data reported in patent US10633429B2, “Human antibody κ type light chain complex-containing composition and method for producing same” (JAPAN SCIENCE AND TECHNOLOGY AGENCY, priority 2013, dated 2020).

Columns and labels:
Format in all cases: cell-based
[1] = system: SNU-1 cell line (human metastatic gastric cancer cell line); test: Cytotoxicity assay (WST assay), SNU-1 cell line
Procedure: (§1) The cytotoxicity of each complex-containing composition to cancer cells was tested using cancer cell lines. As the cancer cell lines, A549 cell line (human alveolar epithelial cancer cell line), ES-2 cell line (human ovarian cancer cell line), MOLT-4 cell line (human acute lymphoblastic leukemia T cell line), BxPC-3 cell line (human pancreatic adenocarcinoma cell line), SNU-1 cell line (human metastatic gastric cancer cell line), and PANC-1 cell line (human pancreatic cancer cell line) were used.
(§2) All of these cell lines were purchased from ATCC (American Type Culture Collection). Here, the A549 cell line was cultured using a 10% FCS (fetal calf serum)-containing F-12K culture medium by a general method, the ES-2 cell line was cultured using a 10% FCS-containing McCoy's 5A culture medium by a general method, each of the MOLT-4 cell line, SNU-1 cell line, and BxPC-3 cell line was cultured using a 10% FCS-containing RPMI-1640 culture medium by a general method, the PANC-1 cell line was cultured using a 10% FCS-containing DMEM culture medium by a general method, and the WI-38 cell line was cultured using a 10% FCS-containing EMEM culture medium by a general method.
(§3) First, after being recovered by thawing the frozen cancer cell lines, the recovered cancer cell lines were seeded in a 96-well plate by 100 μL to be 5×10^3 cells/well (the number of seeds was appropriately adjusted by cell species). After culturing was carried out at 37° C. for 24 hours, a culture medium to be added to the 96-well plate was removed by decantation, and then each complex-containing composition prepared at a concentration of about 1 mg/mL was added to each well by 100 μL. After culturing was carried out for 24 hours or 48 hours from the addition of the complex-containing composition (after cells are planted and cultivated for 48 hours or 72 hours), a WST-1 reagent (manufactured by Roche Inc.) was added to each well by 10 μL and incubated for 1, 1.5, and 2 hours to form a formazan dye, and then the absorbance (Abs at 450 nm) of the formazan dye was measured (WST assay). As a control, a human antibody κ type light chain not bound to metal ions or PBS was added instead of the complex-containing composition and cultured for 24 hours or 48 hours, and then WST assay was carried out. Based on the results of the obtained absorbance, the cell survival rate of the well added with the human antibody κ type light chain not bound to metal ions or the well added with the PBS was set to 100%, and the cell survival rate of each well was determined, so as to evaluate the cytotoxicity of the added complex-containing composition.

[2] = system: PANC-1 cell line (human pancreatic cancer cell line); test: Cytotoxicity assay (WST assay), PANC-1 cell line; details: Example 2, Fr. 3B set to 100%
Procedure: as §1, §2
as §3, with “After culturing was carried out at 37° C. for 24 hours, a culture medium to be added to the 96-well plate was removed by decantation, and then each complex-containing composition prepared at a concentration of about 1 mg/mL was added to each well by 100 μL.” left out

[3] = system: WI-38 cell line (human fetal lung fibroblast cell line); test: Cytotoxicity assay (WST assay), WI-38 control cell line; details: Example 5; cisplatin 4.2 μM; 24 hours; PBS set to 100%
Procedure: In addition, as a control, WI-38 cell line (human fetal lung fibroblast cell line) was also used.
(§4) All of these cell lines were purchased from ATCC (American Type Culture Collection). […]
as §3, with “After culturing was carried out at 37° C. for 24 hours, a culture medium to be added to the 96-well plate was removed by decantation, and then each complex-containing composition prepared at a concentration of about 1 mg/mL was added to each well by 100 μL.” left out, “As a control, a human antibody κ type light chain not bound to metal ions or PBS was added instead of the complex-containing composition and cultured for 24 hours or 48 hours, and then WST assay was carried out.” left out

[4] = system: A549 cell line (human alveolar epithelial cancer cell line); test: Cytotoxicity assay (WST assay), A549 cell line; details: Example 5; C51 incubated with metal ions 4 μM or cisplatin 4 μM; 24 hours; PBS set to 100%
Procedure: as §1, §4
First, after being recovered by thawing the frozen cancer cell lines, the recovered cancer cell lines were seeded in a 96-well plate by 100 μL to be 5×10^3 cells/well (the number of seeds was appropriately adjusted by cell species). […] After culturing was carried out for 24 hours or 48 hours from the addition of the complex-containing composition (after cells are planted and cultivated for 48 hours or 72 hours), a WST-1 reagent (manufactured by Roche Inc.) was added to each well by 10 μL and incubated for 1, 1.5, and 2 hours to form a formazan dye, and then the absorbance (Abs at 450 nm) of the formazan dye was measured (WST assay). […]

[5] = Example 2, #7_wt fractions 4 μM (100 μg/mL) or cisplatin 4 μM, Fr. 3B set to 100%
[6] = Example 2, cisplatin 33 μM, Fr. 3B set to 100%
[7] = #7_wt fractions 4 μM (100 μg/mL) or cisplatin 4 μM

N.N.[Cl][Pt][Cl] [Cisplatin, cisplatin]
Relative cell survival rate, SNU-1 cell line, 24 h [1, 5]: 85.0% | Relative cell survival rate, SNU-1 cell line, 48 h [1, 5]: 32.5% | Relative cell survival rate, SNU-1 cell line, 24 h [1, 6]: 32.0% | Relative cell survival rate, SNU-1 cell line, 48 h [1, 6]: 5.8% | Relative cell survival rate, SNU-1 cell line, 24 h ([1]; Example 3, cisplatin 4 μM, Fr. 3B (#7_C219A) set to 100%): 89.5% | Relative cell survival rate, PANC-1 cell line, 24 h [2, 7]: 109.3% | Relative cell survival rate, PANC-1 cell line, 48 h [2, 7]: 82.1% | Relative cell survival rate, PANC-1 cell line, 24 h ([2]; cisplatin 33 μM): 60.3% | Relative cell survival rate, PANC-1 cell line, 48 h ([2]; cisplatin 33 μM): 9.6% | Relative cell survival rate [3]: 40% | Relative cell survival rate [4]: about 60%
